According to US12577214B2, “Polymorphs of bis(fluoroalkyl)-1,4-benzodiazepinone compounds and uses thereof” (Bristol-Myers Squibb Company, priority 2020, dated 2026):
Converted amounts (≈) assume the structure as drawn. Read-outs that look alike come from different tables or passages of the source.

Key:
Assay type in all cases: physicochemical
[1] = Solid state stability of N-2 free base form
Protocol: Solid state stability was conducted only on N-2, at 5° C., 25° C., 40° C./75% RH (open and closed), and 50° C. for up to 4 weeks.

[2] = Solubility of N-2 in water and solvents
Protocol: N-2 has an aqueous solubility of <1 μg/mL in water.

[3] = Form stability on heating (PXRD); details: heating to 270° C.
Protocol: FIG. 1 depicts PXRD patterns of the N-2 form at room temperature (bottom), 165° C. (middle) and 270° C. (top).
The crystal structure for Compound 1 was determined by single crystal X-ray diffraction studies on elongated prismatic crystals grown from THF/heptane. The intermolecular hydrogen-bonding in the N-2 structure is shown in FIGS. 12A-12B; the structure contains small voids of about 20 Å^3. The experimental PXRD pattern for N-2 matches the simulated pattern which confirms the single phase identity of N-2 crystallized in bulk (FIG. 13). […] (FIG. 1).

[4] = Form stability on slurrying in aqueous solutions (PXRD); details: slurry at RT in FASIF and in HCl (pH=1)
From the text: FIG. 16 depicts PXRD patterns of: P1 form following slurrying thereof in FASIF (fasted state simulated intestinal fluid) (top); in HCl (pH=1) (middle); and of N-2 form (bottom). […] (FIG. 14). […] (FIG. 15).

| SMILES | Solid state stability (chemical and physical) ([1]; 5° C., 25° C., 40° C./75% RH (open and closed), and 50° C. for up to 4 weeks) | Stability when exposed to high intensity light (HIL)/ultraviolet (UV) light ([1]; HIL/UV light for 7 days) | solubility ([2]; PEG 400, organic solvent or mixture, read-out: solubility in PEG 400) [mg/mL] | solubility ([2]; in water, read-out: aqueous solubility) [mg/mL] | Physical form after heating [3] | Form after slurrying in aqueous solutions [4] |
| --- | --- | --- | --- | --- | --- | --- |
| Cc1cccc2c1NC(=O)[C@@H](NC(=O)[C@H](CCC(F)(F)F)[C@H](CCC(F)(F)F)C(N)=O)N=C2c1cccc(F)c1 [Compound N-2] | chemically and physically stable | chemically and physically stable | ~38 (≈ 66.1 mM) | < 0.001 | No physical change in form |  |
| Cc1cccc2c1NC(=O)[C@@H](NC(=O)[C@H](CCC(F)(F)F)[C@H](CCC(F)(F)F)C(N)=O)N=C2c1cccc(F)c1 [Compound P1] |  |  |  |  |  | converts to N-2 |
